The results in this text go back to PMC5350466 (mBio, 2017).

Converted amounts (≈) assume the structure as drawn. Some results are limits rather than exact numbers.

Assay [1] concerns ΔbcnA pbcnA3 (Pa). The experiment in a line: MIC by E test. Format: cell-based, Burkholderia cenocepacia. As to conditions: 24 h.
The subject of assay [2] is ΔbcnA pbcnA (MTb). It is filed as cell-based, Burkholderia cenocepacia.
Assay [3] has as its system ΔbcnA pbcnA1 (Pa). The experiment in a line: MIC by E test. Format: cell-based, Burkholderia cenocepacia. The settings on record: 24 h.
Assay [4] has as its system ΔbcnA pbcnA2 (Pa). The experiment in a line: MIC by E test. It is filed as cell-based, Burkholderia cenocepacia. The settings on record: 24 h.
Assay [5] deals with ΔbcnA pbcnA. The assay can be described thus: MIC by E test. Format: cell-based, Burkholderia cenocepacia. The settings on record: 24 h.
In assay [6] the test system is BcnB. The assay can be described thus: In vitro binding of Nile red to BcnB. Also noted: species or system Burkholderia cenocepacia. As to conditions: 1.5 µM BcnB vs 1.5 µM BcnA. On the procedure:
In vitro binding assays were performed as previously described ([23]), with a few modifications. Purified BCNs were prepared in phosphate-buffered saline (PBS, pH 7.4). Phospholipids and Nile red were prepared in DMSO. […] All spectra were corrected for background fluorescence determined from probe-into-buffer titrations. Fluorescence was measured with a Cary Eclipse fluorescence spectrophotometer (Varian) set at an excitation wavelength (λex) specific for each probe, as follows: Nile red, 550 nm; BODIPY phospholipids, 500 nm for fatty acyl BODIPY-labeled phosphocholine and 505 nm for head group BODIPY-labeled phosphoethanolamine. The emission spectrum for each probe was collected across the following wavelengths (λem): Nile red, 590 to 750 nm; BODIPY phospholipids, 510 to 665 nm. The background-corrected binding fluorescence with each probe was fitted to a one-site binding model as previously described for human AGP ([23]). The equilibrium binding affinity constant for the probe-BCN complex (Kd), the probe concentration needed to achieve half-maximum binding at equilibrium, was determined by nonlinear least-squares regression analysis of the binding isotherms with GraphPad Prism v 5.0 software (GraphPad Software, Inc.).

Assay [7] addresses Burkholderia cenocepacia BcnB (BCAL3310) (Burkholderia cenocepacia). The assay can be described thus: SEC-MALS; proteins diluted to 1 mg/ml in 20 mM Tris (pH 7.5)-100 mM NaCl. In general terms: Size exclusion chromatography separates by hydrodynamic size, large species first.
The target in assay [8] is Burkholderia cenocepacia BcnA (BCAL3311) (Burkholderia cenocepacia). The experiment in a line: other; competition with Nile red, PBS.

Take `O=C(O)c1cn(C2CC2)c2cc(N3CCNCC3)c(F)cc2c1=O` [Cipro, ciprofloxacin]: the “MIC by Etest, ΔbcnA pbcnA3 (Pa)” value in assay [1] came to 4 µg/mL (≈ 12.1 µM). Also, in assay [2], the “MIC by Etest, ΔbcnA pbcnA (MTb)” value amounted to 4 µg/mL (≈ 12.1 µM). Further, the “MIC by Etest, ΔbcnA pbcnA1 (Pa)” value in assay [3] amounted to 4 µg/mL (≈ 12.1 µM). In addition, the “MIC by Etest, ΔbcnA pbcnA2 (Pa)” value in assay [4] was found to be 4 µg/mL (≈ 12.1 µM). Also, the “MIC by Etest, ΔbcnA pbcnA” value in assay [5] is 4 µg/mL (≈ 12.1 µM).

As to `CCN(CC)c1ccc2nc3c4ccccc4c(=O)cc-3oc2c1` [Nile red], the “affinity of BcnB binding to Nile red, fold lower than that of BcnA” value in assay [6] is reported as ~ 20 fold.

The term stoichiometry N denotes a count of units in the complex or per binding partner. In assay [7], “Burkholderia cenocepacia BcnB (BCAL3310) (natural protein)” registered a stoichiometry N of 2.

For orientation: Ki means a dissociation constant, usually derived from enzyme kinetics or from competition with a known ligand. Read a low Ki as a stronger hold on the target. In assay [8], PmB nonapeptide returned a Ki of 5080 µM.

`CO[C@H]1/C=C/O[C@@]2(C)Oc3c(C)c(O)c4c(O)c(c(/C=N/N5CCN(C)CC5)c(O)c4c3C2=O)NC(=O)/C(C)=C\C=C\[C@H](C)[C@H](O)[C@@H](C)[C@@H](O)[C@@H](C)[C@H](OC(C)=O)[C@@H]1C` [Rifampicin, rifampin]: the “MIC by Etest, ΔbcnA pbcnA3 (Pa)” value in assay [1] is not below 64 µg/mL. In addition, the “MIC by Etest, ΔbcnA pbcnA (MTb)” value in assay [2] is not below 64 µg/mL. Moreover, in assay [3], the “MIC by Etest, ΔbcnA pbcnA1 (Pa)” value is not below 64 µg/mL. Further, in assay [4], the “MIC by Etest, ΔbcnA pbcnA2 (Pa)” value turned out to be 32 µg/mL (≈ 38.9 µM). In addition, the “MIC by Etest, ΔbcnA pbcnA” value in assay [5] is not below 64 µg/mL.

Regarding `CC(C)(O/N=C(\C(=O)N[C@@H]1C(=O)N2C(C(=O)[O-])=C(C[n+]3ccccc3)CS[C@H]12)c1csc(N)n1)C(=O)O` [Ceftazidime, ceftazidime], the “MIC by Etest, ΔbcnA pbcnA3 (Pa)” value in assay [1] came out at 8 µg/mL (≈ 14.6 µM). In addition, the “MIC by Etest, ΔbcnA pbcnA (MTb)” value in assay [2] amounted to 8 µg/mL (≈ 14.6 µM). In addition, the “MIC by Etest, ΔbcnA pbcnA1 (Pa)” value in assay [3] is 8 µg/mL (≈ 14.6 µM). Also, the “MIC by Etest, ΔbcnA pbcnA2 (Pa)” value in assay [4] came to 8 µg/mL (≈ 14.6 µM). Also, in assay [5], the “MIC by Etest, ΔbcnA pbcnA” value amounted to 8 µg/mL (≈ 14.6 µM).

On to polymyxin B, for which the Ki in assay [8] was determined as 670 µM.
